Data reported in patent publication US9427479B2, “Tubulysin derivatives” (MedImmune LLC, priority 2014, dated 2016).

Legend:
Type in all cases: cell-based
MB231 = assay: In vitro proliferation assay (CellTiter-Glo), MB231; settings: Homo sapiens; MB231 cells; cultured 72 to 144 hours; CellTiter-Glo cell viability
HCT116 = assay: In vitro proliferation assay (CellTiter-Glo), HCT116; settings: Homo sapiens, HCT-116; HCT116 cells; cultured 72 to 144 hours; CellTiter-Glo cell viability
DU145 = assay: In vitro proliferation assay (CellTiter-Glo), DU145; settings: Homo sapiens, DU-145; DU145 cells; cultured 72 to 144 hours; CellTiter-Glo cell viability
Method: A panel of human cancer cell lines (DU 145, NCI-N87, and MDA-MB-361) obtained from the American Type Tissue Collection (ATCC) (P.O. Box 1549, Manassa, Va. 20108 (USA)) were used to determine the relative cytotoxicity of tubulysin compounds of the invention. The cells were plated in culture media at a density of 2,000 to 5,000 per well of tissue-culture-treated 96-well plates in a volume of 80 μl and allowed to adhere overnight. A 5× concentration of each compound tested was prepared by diluting the test articles in culture medium. Twenty microliters of each test article was added to cells in duplicate or triplicate such that the final dose curve ranged from 4 μg/ml down to 61 pg/ml in a stepwise 1:4 serial dilution series. The treated cells were cultured at 37° C./5% CO2 for 72 to 144 hours. The CellTiter-Glo Luminescent Viability Assay from Promega was used to determine relative cytotoxicity. Briefly, 100 μl of CellTiter-Glo reagent was added to each well, allowed to incubate for 10 minutes at room temperature with mild shaking and then the […] was read using a Perkin Elmer EnVision luminometer. The percent cell viability was calculated by the following formula: (average luminescence of treated samples/average luminescence of control (untreated) samples)×100. IC50 values were determined using logistic non-linear regression analysis with GraphPad Prism software. Not all compounds were assayed against all cell lines.

| SMILES | IC50 (MB231) | IC50 (HCT116) | IC50 (DU145) |
| --- | --- | --- | --- |
| CC[C@H](C)[C@H](NC(=O)[C@H]1C[C@H](C)CCN1C)C(=O)N(CC)[C@H](C[C@@H](OC(C)=O)c1nc(C(=O)N[C@@H](Cc2ccc(N)cc2)C[C@H](C)C(=O)O)cs1)C(C)C [Compound 1, (2S,4R)-4-(2-((1R,3R)-1-acetoxy-3-((2S,3S)-2-((2R,4R)-1,4-dimethylpiperidine-2-carboxamido)-N-ethyl-3-methylpentanamido)-4-methylpentyl)thiazole-4-carboxamido)-5-(4-aminophenyl)-2-methylpentanoic acid] | 2.5 nM | 0.6 nM | 0.2 nM |
| CC[C@H](C)[C@H](NC(=O)[C@H]1CC(C)(C)CCN1C)C(=O)N(C)[C@H](C[C@@H](OC(C)=O)c1nc(C(=O)N[C@@H](Cc2ccccc2)C[C@H](C)C(=O)O)cs1)C(C)C [Compound 4, (2S,4R)-4-(2-((1R,3R)-1-acetoxy-3-((2S,3S)—N,3-dimethyl-2-((R)-1,4,4-trimethylpiperidine-2-carboxamido)pentanamido)-4-methylpentyl)thiazole-4-carboxamido)-2-methyl-5-phenylpentanoic acid] | 3.9 nM | 1.8 nM | 1.3 nM |
| CC[C@H](C)[C@H](NC(=O)[C@@]1(C)CCCCN1C)C(=O)N(CC)[C@H](C[C@@H](OC(C)=O)c1nc(C(=O)N[C@@H](Cc2ccc(N)cc2)C[C@H](C)C(=O)O)cs1)C(C)C [Compound 3, (2S,4R)-4-(2-((1R,3R)-1-acetoxy-3-((2S,3S)-2-((R)-1,2-dimethylpiperidine-2-carboxamido)-N-ethyl-3-methylpentanamido)-4-methylpentyl)thiazole-4-carboxamido)-5-(4-aminophenyl)-2-methylpentanoic acid] |  |  | 0.2 nM |
| CC[C@H](C)[C@H](NC(=O)[C@H]1C[C@H](C)CCN1C)C(=O)N(C)[C@H](C[C@@H](OC(C)=O)c1nc(C(=O)N[C@@H](Cc2ccc(N)cc2)C[C@H](C)C(=O)O)cs1)C(C)C [Compound 6, (2S,4R)-4-(2-((1R,3R)-1-acetoxy-3-((2S,3S)-2-((2R,4R)-1,4-dimethylpiperidine-2-carboxamido)-N,3-dimethylpentanamido)-4-methylpentyl)thiazole-4-carboxamido)-5-(4-aminophenyl)-2-methylpentanoic acid] | 6.6 nM | 1.9 nM | 4 nM |
| CC[C@H](C)[C@H](NC(=O)C1(CC)CCCCN1C)C(=O)N(CC)[C@H](C[C@@H](OC(C)=O)c1nc(C(=O)N[C@@H](Cc2ccc(N)cc2)C[C@H](C)C(=O)O)cs1)C(C)C (stereo partly drawn) [Compound 2, (2S,4R)-4-(2-((1R,3R)-1-acetoxy-3-((2S,3S)—N-ethyl-2-(2-ethyl-1-methylpiperidine-2-carboxamido)-3-methylpentanamido)-4-methylpentyl)thiazole-4-carboxamido)-5-(4-aminophenyl)-2-methylpentanoic acid] |  |  | 0.5 nM |
| CC[C@H](C)[C@H](NC(=O)[C@H]1C[C@H](C)CCN1C)C(=O)N(C)[C@H](C[C@@H](OC(C)=O)c1nc(C(=O)N[C@@H](Cc2ccccc2)C[C@H](C)C(=O)O)cs1)C(C)C [Compound 5, (2S,4R)-4-(2-((1R,3R)-1-acetoxy-3-((2S,3S)-2-((2R,4R)-1,4-dimethylpiperidine-2-carboxamido)-N,3-dimethylpentanamido)-4-methylpentyl)thiazole-4-carboxamido)-2-methyl-5-phenylpentanoic acid] | 3.4 nM | 0.5 nM | 0.9 nM |
